Data: US20120046364A1, “Novel Sulfonic Acid-Containing Thyromimetics, and Methods for Their Use” (METABASIS THERAPEUTICS, INC., priority 2009, published 2012)

Legend:
[1] = PO 24 Hr. CF TPC decrease; assay type: in vivo; conditions: dose 0.2 mg/kg
Description: Administering sulfonic acid-containing compounds that bind to a TR to animals can result in changes in lipids, including hepatic and/or plasma cholesterol levels; changes in lipoprotein levels including LDL-cholesterol, lipoprotein a (Lp(a)); changes in hepatic glycogen levels; and changes in energy expenditure as measured by changes in oxygen consumption and in some cases animal weight. For example, the effect on cholesterol may be determined using cholesterol fed animals such as normal rats and hamsters, or TRα^−/− knockout mice. Cholesterol may be measured using standard tests. Hepatic glycogen levels may be determined from livers isolated from treated animals. Changes in energy expenditure may be monitored by measuring changes in oxygen consumption (MVO2). Varieties of methods are well described in the literature and include measurement in the whole animal using Oxymax chambers (U.S. Pat. No. 6,441,015). Livers from treated rats can also be evaluated (Fernandez et al., Toxicol. Lett. 69(2):205-10 (1993)) as well as isolated mitochondria from liver (Carreras et al., Am. J. Physiol. Heart Circ. Physiol. 281(6):H2282-8 (2001)). Hepatocytes from treated rats can also be evaluated (Ismail-Beigi F et al., J Gen Physiol. 73(3):369-83 (1979)).

[2] = biological target: T1, human thyroid hormone receptor TRα (TRα1) (Homo sapiens, UniProt P10827); assay: Receptor binding, TRα (125I-T3 displacement / SPA)
T1 construct: made in house; host or cells: Sf9 insect cells (baculovirus), crude lysate
T1 sequence (P10827 1-410 isoform P10827-2): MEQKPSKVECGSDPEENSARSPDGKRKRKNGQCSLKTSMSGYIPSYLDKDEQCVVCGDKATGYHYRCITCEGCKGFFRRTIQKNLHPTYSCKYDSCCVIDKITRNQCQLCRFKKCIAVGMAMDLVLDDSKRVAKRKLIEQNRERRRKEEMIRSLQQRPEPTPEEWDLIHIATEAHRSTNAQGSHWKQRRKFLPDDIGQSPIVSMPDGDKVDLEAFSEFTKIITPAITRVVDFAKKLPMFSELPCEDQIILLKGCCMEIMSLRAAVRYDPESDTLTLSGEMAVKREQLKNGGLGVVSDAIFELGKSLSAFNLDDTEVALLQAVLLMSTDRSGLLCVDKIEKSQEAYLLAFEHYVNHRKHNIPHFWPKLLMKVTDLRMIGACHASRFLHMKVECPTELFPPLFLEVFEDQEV
T1 sequence (P19793 1-462 partner): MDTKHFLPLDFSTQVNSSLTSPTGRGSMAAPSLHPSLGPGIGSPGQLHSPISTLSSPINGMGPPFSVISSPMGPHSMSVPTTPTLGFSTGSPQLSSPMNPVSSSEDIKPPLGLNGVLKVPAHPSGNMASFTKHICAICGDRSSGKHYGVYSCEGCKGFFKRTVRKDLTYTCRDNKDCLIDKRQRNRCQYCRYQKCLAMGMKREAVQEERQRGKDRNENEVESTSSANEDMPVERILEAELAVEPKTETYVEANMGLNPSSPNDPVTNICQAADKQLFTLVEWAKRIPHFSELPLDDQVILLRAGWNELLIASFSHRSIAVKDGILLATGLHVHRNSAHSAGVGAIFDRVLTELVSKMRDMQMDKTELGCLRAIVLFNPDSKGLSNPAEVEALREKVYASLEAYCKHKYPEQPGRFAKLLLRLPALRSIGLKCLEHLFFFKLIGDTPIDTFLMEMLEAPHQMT
Description: (§1) Methods: Baculoviruses expressing TRα1, TRβ1 and RXRα are generated using cDNA and other reagents from Invitrogen (Carlsbad, Calif.). To produce TR/RXR heterodimer proteins, the sf9 insect cells are first grown to a density of 15×10^5 cells/mL. TRα1 or TRβ1 and RXRα baculovirus stocks are added to the cell culture with a ratio of 1 to 1 (multiplicity of infection=10). The cells are harvested three days after the infection. […] The bound ^125I-T3 is counted with a scintillation counter.
(§2) Binding of compounds to either the TRα1 or TRβ1 are also performed by means of scintillation proximity assays (SPA). The SPA assay, a common method used for the quantitation of receptor-ligand equilibria, makes use of special beads coated with a scintillant and a capture molecule, copper, which binds to the histidine-tagged α or β receptor.

[3] = biological target: T2, human thyroid hormone receptor TRβ (TRβ1) (Homo sapiens, UniProt P10828); assay: Receptor binding, TRβ (125I-T3 displacement / SPA); conditions: for Ratio: TRα Kd / TRβ Kd
T2 construct: made in house; host or cells: Sf9 insect cells (baculovirus), crude lysate
T2 sequence (P10828 1-461): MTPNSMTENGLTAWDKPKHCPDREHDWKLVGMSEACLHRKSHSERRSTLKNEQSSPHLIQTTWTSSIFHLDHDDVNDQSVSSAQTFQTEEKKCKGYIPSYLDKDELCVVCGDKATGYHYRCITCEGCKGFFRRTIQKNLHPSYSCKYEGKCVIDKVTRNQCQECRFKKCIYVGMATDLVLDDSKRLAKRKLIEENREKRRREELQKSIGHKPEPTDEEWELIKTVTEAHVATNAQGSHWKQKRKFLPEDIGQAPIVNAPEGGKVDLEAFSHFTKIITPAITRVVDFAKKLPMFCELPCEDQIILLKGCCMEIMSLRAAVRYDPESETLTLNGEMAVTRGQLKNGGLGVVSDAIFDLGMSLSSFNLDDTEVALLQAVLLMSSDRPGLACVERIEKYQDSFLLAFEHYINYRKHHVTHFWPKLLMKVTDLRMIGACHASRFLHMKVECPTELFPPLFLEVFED
T2 sequence (P19793 1-462 partner): T1 sequence (P19793 1-462 partner)
Description: as §1, §2

## Cc1cc(CS(=O)(=O)O)cc(C)c1Cc1ccc(O)c(C(C)C)c1 [Compound 1]
[1]
  PO 24 Hr. CF TPC Dec (d % of Cont): −45 d % of Cont
[2]
  Kd: 12 nM
[3]
  Kd: 0.7 nM
  Ratio: 17.1

## 3,5-dimethyl-4-(4′-hydroxy-3′-iso-propylbenzyl)phenyl-methanesulfonic acid [Compound 2]
[1]
  PO 24 Hr. CF TPC Dec (d % of Cont): −42 d % of Cont
[2]
  Kd: 1.1 nM
[3]
  Kd: 0.4 nM
  Ratio: 2.8
